Residues, ends and D or L forms follow the SMILES beside them.
Experiments:
[1] = target: T1, rNav1.3 (Rattus norvegicus, UniProt P08104); test: Whole-cell patch clamp, Nav1.3 in HEK293 cells; format: cell-based; settings: −10 mV from −80 mV holding
T1 construct: expressed in transfected cells; host or cells: HEK293 (HEK293T) cells, transient
Text: (§1) Nine sodium channel subtypes have been identified and classified as TTX-S (Nav1.1–Nav1.4, Nav1.6, and Nav1.7) or TTX-R types (Nav1.5, Nav1.8, and Nav1.9). […] However, the subtype selectivity of JZTX-34 on the subtype of sodium channel is still unknown. In this work, effects of JZTX-34 on VGSC subtypes (Nav1.1–Nav1.8) were examined. Nav1.1–Nav1.7 were transfected into HEK293 cells and Nav1.8 currents were expressed in ND cells. Inward sodium currents were elicited by a 50 ms depolarizing potential to −10 mV from a holding potential of −80 mV every 5 s. […] No effects on other sodium channel subtypes were found (Nav1.1, Nav1.2, Nav1.4–Nav1.6, and Nav1.8) (Figure S2).
Figure 2 Selectivity of JZTX-34 on sodium channel subtypes. […]
(§2) The HEK293T cells were maintained in standard culture conditions (5% CO2 and 37 °C). […] After culturing for 36–72 h, cells with obvious green fluorescence were selected for sodium currents recordings the internal solution for sodium currents recording that contained (in mM) 140 CsF, 5 NaCl, 10 HEPES, 3 Na2-ATP, and 10 EGTA. […]
(§3) Sodium currents were recorded from DRG, HEK293, and ND cells by the whole-cell patch-clamp technique at 25 °C. […] Experiments date were acquired from whole-cell Axon 700B patch clamp amplifier (Molecular Devices, Sunnyvale, CA, USA) and analyzed by the program Clampfit10.0 (Molecular Devices, Sunnyvale, CA, USA) and Sigmaplot. […]

[2] = test system: Nav1.7; test: Gating properties of Nav1.7 (current-voltage, steady-state activation and inactivation); format: cell-based, human
Description: We investigated the effects of this toxin on the gating properties of Nav1.7. The current-voltage relationship of Nav1.7 was investigated using step depolarization ranging from −80 to +80 mV from a holding potential of −80 mV. Under control conditions, the threshold of initial activation was about −40 mV, and the inward current peaked at −20 mV. […] The midpoint of channel activation before and after application of 1 µM toxin was −27.9 ± 3.3 and −28.1 ± 2.9 mV, respectively (Figure S3B). […] The effect of JZTX-34 on steady-state inactivation was also investigated using a standard two-pulse protocol as described in the legend. […]
cDNA genes encoding rat Nav1.1, Nav1.2, Nav1.3, Nav1.4, Nav1.5, human Nav1.7 (hNav1.7), and hNav1.8 were subcloned into the vectors pRGB4 and pcDNA3.1-mod, respectively. The chimera of Nav1.5 (Nav1.7-DII-S3-S4) and Nav1.7 (Nav1.5-DIV-S3-S4) were constructed according the methods described previously. Mutations of Nav1.5 and Nav1.7 were constructed using QuikChange II XL Site-Directed Mutagenesis kit (Agilent Technologies Inc, Palo Alto, CA, USA). All chimera and mutations were sequenced to determine the right sequences.
The HEK293T cells were maintained in standard culture conditions (5% CO2 and 37 °C). Then, 10% fetal bovine serum was added to Dulbecco’s modified Eagle’s medium. Sodium channel subtypes (Nav1.1–Nav1.5, Nav1.7), the chimera and mutants of Nav1.5 and Nav1.7 with β1subnit tagged with eGFP in a molar ratio of 2:1, were transiently co-transfected into HEK293 cells using Lipofectamine 3000 (Invitrogen, Carlsbad, CA, USA). Nav1.8, β1subnit, and eGFP were co-transfected into ND cells using the same protocol. After culturing for 36–72 h, cells with obvious green fluorescence were selected for sodium currents recordings the internal solution for sodium currents recording that contained (in mM) 140 CsF, 5 NaCl, 10 HEPES, 3 Na2-ATP, and 10 EGTA. […]
as §3
(§4) Data from Axon 700B patch clamp were analyzed by Clampfit10.0 (Molecular Devices, Sunnyvale, CA, USA). […] The G-V curves were obtained by calculating the conductance (G) at each voltage (V) using the equation G = I/(V1 − Vrev), with Vrev being the reversal potential determined for each cell individually. […] All the results from patch clamp and animal models are expressed as means ± standard error of the mean (SEM). Statistical significance was calculated using Student’s t-test and was defined as p < 0.05. […]

[3] = target: T2, hNav1.7 (Homo sapiens, UniProt Q15858); test: Whole-cell patch clamp, WT Nav1.7 in HEK293 cells; format: cell-based
T2 construct: expressed in transfected cells; host or cells: HEK293 (HEK293T) cells, transient
T2 sequence (Q07699 19-218): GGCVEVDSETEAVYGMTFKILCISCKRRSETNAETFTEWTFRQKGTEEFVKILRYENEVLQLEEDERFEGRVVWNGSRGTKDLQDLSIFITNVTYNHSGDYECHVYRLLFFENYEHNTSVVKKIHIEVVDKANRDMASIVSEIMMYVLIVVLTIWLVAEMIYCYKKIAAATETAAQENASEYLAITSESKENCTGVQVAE
T2 sequence (Q15858 other isoform, or with tags, fused parts or gaps): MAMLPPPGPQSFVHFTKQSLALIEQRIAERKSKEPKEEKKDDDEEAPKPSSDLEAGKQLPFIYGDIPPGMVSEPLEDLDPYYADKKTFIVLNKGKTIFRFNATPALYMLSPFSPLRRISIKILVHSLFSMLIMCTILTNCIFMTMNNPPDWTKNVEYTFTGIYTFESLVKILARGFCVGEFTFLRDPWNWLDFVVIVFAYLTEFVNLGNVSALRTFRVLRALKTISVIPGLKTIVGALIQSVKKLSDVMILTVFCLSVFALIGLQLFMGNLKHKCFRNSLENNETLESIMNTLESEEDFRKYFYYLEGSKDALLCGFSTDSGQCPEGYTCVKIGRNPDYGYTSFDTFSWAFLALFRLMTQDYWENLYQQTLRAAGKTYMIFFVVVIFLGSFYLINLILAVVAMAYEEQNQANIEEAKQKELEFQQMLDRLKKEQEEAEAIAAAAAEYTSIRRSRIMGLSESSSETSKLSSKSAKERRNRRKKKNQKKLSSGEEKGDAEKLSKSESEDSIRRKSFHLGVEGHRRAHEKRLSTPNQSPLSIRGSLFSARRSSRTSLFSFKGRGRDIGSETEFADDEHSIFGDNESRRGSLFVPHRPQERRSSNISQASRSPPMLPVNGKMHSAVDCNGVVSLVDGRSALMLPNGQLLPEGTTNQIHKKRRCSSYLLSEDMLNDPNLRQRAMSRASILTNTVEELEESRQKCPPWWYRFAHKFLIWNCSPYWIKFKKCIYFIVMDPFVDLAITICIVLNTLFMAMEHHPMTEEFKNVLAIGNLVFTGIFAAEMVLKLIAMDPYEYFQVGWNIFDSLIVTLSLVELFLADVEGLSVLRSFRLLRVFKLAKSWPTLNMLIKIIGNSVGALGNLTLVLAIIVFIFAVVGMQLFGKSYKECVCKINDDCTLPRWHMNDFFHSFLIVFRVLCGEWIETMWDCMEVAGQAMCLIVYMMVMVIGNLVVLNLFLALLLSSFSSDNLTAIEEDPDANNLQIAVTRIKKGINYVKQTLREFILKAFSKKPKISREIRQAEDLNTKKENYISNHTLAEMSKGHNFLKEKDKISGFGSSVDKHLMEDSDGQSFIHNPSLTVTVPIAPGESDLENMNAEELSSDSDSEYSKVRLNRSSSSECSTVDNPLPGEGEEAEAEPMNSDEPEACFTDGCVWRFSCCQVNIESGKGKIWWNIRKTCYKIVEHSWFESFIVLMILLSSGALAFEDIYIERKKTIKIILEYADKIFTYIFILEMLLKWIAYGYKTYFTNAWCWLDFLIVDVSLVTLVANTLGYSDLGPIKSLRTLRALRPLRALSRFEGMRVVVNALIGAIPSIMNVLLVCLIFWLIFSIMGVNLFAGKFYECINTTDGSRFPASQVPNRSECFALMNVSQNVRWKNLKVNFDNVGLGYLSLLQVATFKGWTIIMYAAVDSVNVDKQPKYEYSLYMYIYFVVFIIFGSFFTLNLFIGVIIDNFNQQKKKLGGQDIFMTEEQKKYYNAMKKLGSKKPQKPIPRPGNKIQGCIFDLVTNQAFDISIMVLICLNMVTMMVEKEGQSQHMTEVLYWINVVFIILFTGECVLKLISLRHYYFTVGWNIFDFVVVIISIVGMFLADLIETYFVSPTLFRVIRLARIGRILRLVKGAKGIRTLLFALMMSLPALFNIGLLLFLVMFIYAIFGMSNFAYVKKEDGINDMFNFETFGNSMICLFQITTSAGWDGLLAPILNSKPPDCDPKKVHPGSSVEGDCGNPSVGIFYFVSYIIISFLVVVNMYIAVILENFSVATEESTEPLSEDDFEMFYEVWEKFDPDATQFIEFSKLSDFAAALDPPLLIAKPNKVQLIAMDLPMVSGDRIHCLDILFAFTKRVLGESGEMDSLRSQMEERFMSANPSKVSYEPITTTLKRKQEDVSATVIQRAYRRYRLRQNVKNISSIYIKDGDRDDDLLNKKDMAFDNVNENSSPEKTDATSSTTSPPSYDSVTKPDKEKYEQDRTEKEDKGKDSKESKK
Text: as §1
Figure 2 Selectivity of JZTX-34 on sodium channel subtypes. All inward sodium channels were elicited by a 50 ms depolarizing potential to −10 mV from a holding potential of −80 mV every 5 s. One μM JZTX-34 was added to rNav1.3. (A) hNav1.7. (B,C) Dose-dependent inhibition of JZTX-34 on rNav1, rNav3, and hNav1.7 (n = 5). […]
as §2, §3
as §4, with “(SEM).” for “(SEM). Statistical significance was calculated using Student’s t-test and was defined as p < 0.05.”

[4] = test system: TTX-R sodium channels from rat DRG neurons; settings: ref [18]; cited from earlier work
Text: In this study, the analgesic effect and mechanism of JZTX-34 on pain were investigated.

T1 sequence (Q07699 19-218): as the sequence (Q07699 19-218) above
T1 sequence (P08104 whole entry): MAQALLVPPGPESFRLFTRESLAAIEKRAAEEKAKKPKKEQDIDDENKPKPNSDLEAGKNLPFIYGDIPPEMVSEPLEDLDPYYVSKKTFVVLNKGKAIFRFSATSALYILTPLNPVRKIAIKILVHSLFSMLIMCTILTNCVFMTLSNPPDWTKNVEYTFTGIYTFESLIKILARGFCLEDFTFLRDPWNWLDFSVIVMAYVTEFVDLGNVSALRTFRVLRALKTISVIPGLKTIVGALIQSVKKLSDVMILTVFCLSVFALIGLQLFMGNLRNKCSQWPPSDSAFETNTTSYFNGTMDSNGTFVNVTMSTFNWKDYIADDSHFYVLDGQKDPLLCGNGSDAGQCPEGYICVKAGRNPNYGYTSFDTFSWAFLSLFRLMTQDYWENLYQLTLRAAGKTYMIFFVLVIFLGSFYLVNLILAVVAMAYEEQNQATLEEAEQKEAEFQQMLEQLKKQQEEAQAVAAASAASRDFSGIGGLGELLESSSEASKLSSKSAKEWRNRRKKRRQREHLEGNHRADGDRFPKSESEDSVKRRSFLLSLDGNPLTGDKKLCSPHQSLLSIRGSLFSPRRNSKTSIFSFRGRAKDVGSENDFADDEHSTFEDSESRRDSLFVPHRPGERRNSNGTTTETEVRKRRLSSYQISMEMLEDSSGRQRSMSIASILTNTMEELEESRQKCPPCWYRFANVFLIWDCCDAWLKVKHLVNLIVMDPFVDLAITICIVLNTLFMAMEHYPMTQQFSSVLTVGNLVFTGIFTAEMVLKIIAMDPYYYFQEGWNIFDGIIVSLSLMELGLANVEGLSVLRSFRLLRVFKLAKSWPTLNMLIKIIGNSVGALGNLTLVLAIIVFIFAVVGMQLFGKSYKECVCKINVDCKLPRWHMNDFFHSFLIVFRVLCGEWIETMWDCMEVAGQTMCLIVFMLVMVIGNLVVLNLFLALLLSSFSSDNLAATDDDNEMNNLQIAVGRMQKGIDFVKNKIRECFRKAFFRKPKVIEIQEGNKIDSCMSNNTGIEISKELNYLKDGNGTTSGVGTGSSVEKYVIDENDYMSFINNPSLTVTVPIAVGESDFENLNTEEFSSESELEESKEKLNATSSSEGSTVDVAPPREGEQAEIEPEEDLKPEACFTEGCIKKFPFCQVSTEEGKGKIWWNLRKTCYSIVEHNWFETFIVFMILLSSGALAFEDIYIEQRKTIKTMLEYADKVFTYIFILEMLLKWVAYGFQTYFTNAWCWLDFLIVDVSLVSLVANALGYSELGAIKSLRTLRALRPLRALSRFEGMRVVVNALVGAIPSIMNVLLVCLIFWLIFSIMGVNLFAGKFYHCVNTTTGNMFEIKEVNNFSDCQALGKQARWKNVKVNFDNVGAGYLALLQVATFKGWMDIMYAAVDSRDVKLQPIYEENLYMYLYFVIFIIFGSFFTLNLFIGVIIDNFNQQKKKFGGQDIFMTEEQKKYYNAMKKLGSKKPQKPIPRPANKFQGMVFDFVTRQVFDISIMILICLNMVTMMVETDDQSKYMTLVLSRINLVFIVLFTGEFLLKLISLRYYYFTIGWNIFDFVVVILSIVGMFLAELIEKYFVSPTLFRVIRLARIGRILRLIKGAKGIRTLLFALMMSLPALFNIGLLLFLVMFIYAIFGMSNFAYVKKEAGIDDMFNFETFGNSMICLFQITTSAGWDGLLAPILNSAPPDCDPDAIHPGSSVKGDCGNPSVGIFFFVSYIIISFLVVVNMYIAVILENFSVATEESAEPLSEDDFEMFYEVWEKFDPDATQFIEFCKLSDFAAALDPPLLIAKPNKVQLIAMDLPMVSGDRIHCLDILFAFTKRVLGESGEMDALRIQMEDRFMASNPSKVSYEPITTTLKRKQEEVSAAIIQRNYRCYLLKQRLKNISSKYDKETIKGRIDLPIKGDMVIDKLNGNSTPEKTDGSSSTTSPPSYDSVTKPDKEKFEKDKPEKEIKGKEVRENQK

## CC(C)C[C@@H]1NC(=O)[C@H](Cc2c[nH]c3ccccc23)NC(=O)[C@H](CCC(=O)O)NC(=O)[C@H](CCCNC(=N)N)NC(=O)[C@@H](NC(=O)[C@H](C)N)CSSC[C@@H]2NC(=O)[C@@H]3CSSC[C@@H](C(=O)N[C@H](C(=O)N[C@@H](Cc4c[nH]c5ccccc45)C(=O)N[C@@H](CC(=O)O)C(=O)N[C@@H](Cc4c[nH]c5ccccc45)C(=O)N[C@H](C(=O)N[C@H](C(=O)O)C(C)C)[C@@H](C)O)C(C)C)NC(=O)[C@H](Cc4c[nH]cn4)NC(=O)[C@H](Cc4ccc(O)cc4)NC(=O)[C@@H]4CCCN4C(=O)[C@H](Cc4c[nH]c5ccccc45)NC(=O)[C@H](CCCCN)NC(=O)[C@H](CCCCN)NC(=O)[C@H](CCCNC(=N)N)NC(=O)[C@H](CSSC[C@H](NC(=O)CNC(=O)CNC1=O)C(=O)N[C@@H](CO)C(=O)N[C@@H](CCCCN)C(=O)N[C@@H](CC(=O)O)C(=O)N[C@@H](C)C(=O)N[C@@H](CC(=O)O)C(=O)N3)NC(=O)[C@H](CCC(=O)O)NC(=O)[C@H](CC(C)C)NC(=O)[C@H](Cc1c[nH]cn1)NC(=O)[C@H](C)NC2=O [JZTX-34, Jingzhaotoxin-34] (HELM PEPTIDE1{A.C.R.E.W.L.G.G.C.S.K.D.A.D.C.C.A.H.L.E.C.R.K.K.W.P.Y.H.C.V.W.D.W.T.V}$PEPTIDE1,PEPTIDE1,2:R3-16:R3|PEPTIDE1,PEPTIDE1,9:R3-21:R3|PEPTIDE1,PEPTIDE1,15:R3-29:R3$$$V2.0; N-terminus and C-terminus assumed)
[1]; 1 µM, mean ± S.E.
  reduction of Nav1.3 currents: 29.4 ± 4.6%
[1]; Hill fit, n = 5
  IC50: 7.95 µM
[2]; 1 µM
  shift of steady-state inactivation: small hyperpolarizing shift in the steady-state inactivation
[2]; 1 µM, "with or without" toxin −67.3 and −73.7 mV, respectively, 500 ms prepulse −100 to −10 mV, test pulse −10 mV 20 ms, n = 5
  midpoint of steady-state inactivation with toxin: about −67.3 mV
[2]; 1 µM, steps −80 to +80 mV from −80 mV holding
  current-voltage relationship of Nav1.7: did not alter the current-voltage relationship
[2]; after 1 µM toxin (before: −27.9 ± 3.3 mV), Boltzmann fit, n = 5
  midpoint of channel activation after toxin: −28.1 ± 2.9 mV
[3]; 1 µM, mutant comparison experiment (Figure 4), read-out: inhibition of WT Nav1.7 currents
  inhibition at 1 µM: 54.3 ± 5.2%
[3]; 1 µM, −10 mV from −80 mV holding, mean ± S.E., subtype selectivity experiment (Figure 2)
  reduction of Nav1.7 currents: 54.6 ± 5.3%
[3]; −10 mV from −80 mV holding, Hill fit, n = 5
  IC50: 610 nM
[4]
  effect on TTX-R sodium currents (previous work): no inhibition on tetrodotoxin-resistant (TTX-R) sodium currents

From paper PMC5848165 (Toxins, 2018)
